Assays:
[1] = test system: UT-7-TPO mutant cell lines; test: 72 h dose response test, CellTiter-Glo cell viability assay; assay type: cell-based; conditions: UT-7-TPO cell lines, mutant vs wild-type
Source text: Among 140.000 structures, a list of compounds with the highest binding energy and specificity towards calreticulin was generated. Relying on compounds that were either commercially available or available from the DTP Databases of the National Cancer Institute (NCI), a docking compound library including 41 compounds was assembled, […] CALR cell lines (FIGS. 5 and 6). […] Two hits were identified as preferentially inhibiting mutant CALR cell line growth. […] Therefore, hematoxylin and derivatives thereof were used for further testing.

[2] = test system: mutant CALR Ba/F3 cell lines; test: as above; assay type: cell-based, mouse; conditions: 72 h dose response test
[3] = test system: CALR mutant cell lines; test: cells; conditions: 72 h, read-out: IC50 in mutant cell lines
Procedure: Ba/F3 and UT-7-TPO were plated 5.000 cells/well and 16.000 cells/well into 96-well plates with the desirable concentrations of compounds or cytokines added to a total volume of 100 ul. 72 hours later, the CellTiter-Glo luminescent Cell Viability Assay (Promega) was used to determine the cell viability. The luminescent signal was detected by a VICTOR Multilabel Plate Reader (PerkinElmer). Dose response data was analyzed by Graphpad Prism 7.0.
To further explore the chemical space of the compound, a few hematoxylin analogues were also tested (FIGS. 15 to 17). […] The compounds Protosappanin B (A-4) and RJ002 (B-2) were also tested. […] As a comparison, the clinically used chemotherapeutic drugs hydroxyurea and ruxolitinib were also tested in the cell models.

[4] = test system: Ba/F3-MPL CALR del52/WT cells mixed with Ba/F3-MPL CALR WT cells; test: two-color competition assay, 12 days; assay type: cell-based, mouse; conditions: in the presence of TPO, compared to DMSO control
Procedure: (§1) FIG. 10: Competition assay of hematoxylin treatment in Ba/F3-MPL cells. Ba/F3-MPL CALR WT (GFP negative) and Ba/F3-MPL CALR del52/WT (GFP positive) cells were mixed and underwent hematoxylin treatment for 12 days. Drug and cytokine were refreshed every 3 days. Percentage of GFP positive cells were recorded by FACs.
(§2) To determine long-term viability, a two-color competition assay was used. Cell lines were transduced with pMSCV-IRES-GFP/mCherry construct, and the fluorescence-positive cells were sorted by a SH800Z Cell Sorter (Sony). GFP/mCherry-positive cell lines were mixed with their non-fluorescent control cells in a 1:1 ratio and underwent compound treatment for 3-12 days. Compounds and cytokines were refreshed every 3 days. Cell samples were analyzed at each time point by a BD LSRFortessa™ cell analyzer (BD Biosciences).

[5] = test system: UT-7-TPO CALR del58/WT cells mixed with UT-7-TPO CALR WT cells; test: two-color competition assay, 12 days; assay type: cell-based; conditions: in the presence of TPO
Procedure: as §1, with “11:” for “10:”, “UT-7-TPO” for “Ba/F3-MPL”, “(mCherry” for “(GFP”, “del58/WT (mCherry” for “del52/WT (GFP”, “mCherry” for “GFP”
as §2

[6] = target: T1, mutant calreticulin (Mus musculus, UniProt P14211); test: Western blot analysis of Ba/F3-MPL cell lines; assay type: cell-based; conditions: time-course
T1 construct: endogenous in cells; host or cells: Ba/F3-MPL CALR WT/del79 (heterozygous) and CALR del37/del37 (homozygous) cell lines and their hematoxylin-resistant clones
Procedure: (§3) 2 million Ba/F3-MPL CALR WT or mutant cells were treated with hematoxylin or the equivalent volume of DMSO in a total volume of 15 ml of RPMI media in T75 flasks (Thermal Fisher Scientific). Cells were collected and washed with PBS before being lysed in whole cell lysis buffer containing 20 mM HEPES, 20% glycerol, 50 mM KCl, 400 mM NaCl, 1 mM EDTA, 1 mM DTT, 5 mM Na orthovanadate, 0.5% NP40, 0.1% Tween 20, supplemented with cOmplete™, Mini, EDTA-free Protease Inhibitor Cocktail (Sigma) and PhosSTOP™ (Sigma). Samples were rotated at 4° C. for 20 min prior to centrifugation at […] for 20 min. The soluble fraction of the sample was collected. Protein concentration was quantified by the Bio-Rad Protein Assay (Bio-Rad) according to the manufacturer's instructions and measured by a SpectraMax Microplate Reader (Molecular Devices). Equal amounts of protein were loaded for 8% or 10% SDS-polyacrylamide gel electrophoresis prior to transfer to Amersham™ Protran® nitrocellulose membranes at 35V, 4° C. overnight. Membranes were then blocked by 5% bovine serum albumin fraction V (Sigma) or milk. Mutant calreticulin was detected by a polyclonal rabbit antibody against the mutant specific C-terminal peptide (Myelopro). The other primary antibodies used were as follows: Calregulin Antibody (F-4)(sc-373863 Santa Cruz), Anti-HSC70(B-6) (J2212, Santa Cruz), Anti-Stat5 (N20)(L1112, Santa Cruz), anti-pYSTAT5 (Tyr694)(71-6900, Life Technologies), anti-TPOR/cMpl (#6944, Millipore), Cleaved PARP (Asp214) (#9548, Cell Signaling). HRP-linked anti-mouse and anti-rabbit antibodies (NA931/4, GE Healthcare Life Sciences) were used as secondary antibodies. Clarity™ Western ECL Blotting Substrates (Biorad) were used for the chemiluminescence detection method.
(§4) To confirm that the cytotoxic selectivity of hematoxylin in CALR mutant cell lines is due to a specific effect on mutant calreticulin, Ba/F3-MPL CALR WT and mutant cell lines were treated with the compound for 24 hours. […]

[7] = test system: mutant calreticulin; test: Western blot analysis of Ba/F3-MPL cell lines; assay type: cell-based, mouse; conditions: 20 uM, 24 hours, heterozygous and homozygous mutant cell lines
Procedure: as §3, §4

T1 sequence (P14211 with tags, fused parts or gaps, stated change not applied): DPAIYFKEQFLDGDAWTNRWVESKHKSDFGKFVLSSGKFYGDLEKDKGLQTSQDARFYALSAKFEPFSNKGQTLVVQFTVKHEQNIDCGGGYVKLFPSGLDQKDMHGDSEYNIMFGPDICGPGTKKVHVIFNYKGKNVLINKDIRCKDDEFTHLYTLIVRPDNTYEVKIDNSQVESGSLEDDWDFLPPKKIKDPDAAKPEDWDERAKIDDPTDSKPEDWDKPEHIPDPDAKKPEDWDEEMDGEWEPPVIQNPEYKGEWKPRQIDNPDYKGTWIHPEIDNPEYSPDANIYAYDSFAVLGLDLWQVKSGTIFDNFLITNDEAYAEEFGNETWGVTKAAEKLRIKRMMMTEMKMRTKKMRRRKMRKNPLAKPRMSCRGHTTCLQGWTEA

SMILES: Oc1cc2c(cc1O)[C@@H]1c3ccc(O)c(O)c3OC[C@]1(O)C2 [hematoxylin, Hematoxylin]
- hypersensitivity of mutant cell lines to the compound [1]: hypersensitivity of mutant cell lines to the compound could be reproduced
- reduction of IC50 in mutant CALR Ba/F3 cell lines compared with the wild-type cell line [2]: 3-5 fold
- IC50 [3]: 2.6 µM
- depletion of CALR mutant cells in co-cultivation with CALR WT cells [4]: almost completely depleted
- outgrowth of mutant cells from the cell population [5]: inhibited the outgrowth of the mutant cells
- mutant calreticulin and MPL protein level ([6]; 8-hour time point): more drastic reduction
- time to start of decrease of mutant calreticulin and MPL ([6]; Ba/F3-MPL CALR WT/del79): 4 h
- mutant calreticulin protein level [7]: striking down-regulation

— patent publication US12410185B2, “Compounds targeting mutant calreticulin” (MYELOPRO DIAGNOSTICS AND RESEARCH GmbH, priority 2018, dated 2025)
